Experimental data from patent US11242337B2, “Compounds useful for treating gastrointestinal tract disorders” (Ardelyx, Inc., priority 2017, dated 2022).
Structures can show the parent of a compound that is named as a salt.

How the values were obtained:
[1] = biological target: T1, NHE3 (Homo sapiens, UniProt P48764); assay: Cell-based assay of NHE-3 activity (persistent inhibition), human; settings: human Persistence, 60 min incubation then washout
T1 construct: expressed in transfected cells
T1 sequence (P48764 26-834): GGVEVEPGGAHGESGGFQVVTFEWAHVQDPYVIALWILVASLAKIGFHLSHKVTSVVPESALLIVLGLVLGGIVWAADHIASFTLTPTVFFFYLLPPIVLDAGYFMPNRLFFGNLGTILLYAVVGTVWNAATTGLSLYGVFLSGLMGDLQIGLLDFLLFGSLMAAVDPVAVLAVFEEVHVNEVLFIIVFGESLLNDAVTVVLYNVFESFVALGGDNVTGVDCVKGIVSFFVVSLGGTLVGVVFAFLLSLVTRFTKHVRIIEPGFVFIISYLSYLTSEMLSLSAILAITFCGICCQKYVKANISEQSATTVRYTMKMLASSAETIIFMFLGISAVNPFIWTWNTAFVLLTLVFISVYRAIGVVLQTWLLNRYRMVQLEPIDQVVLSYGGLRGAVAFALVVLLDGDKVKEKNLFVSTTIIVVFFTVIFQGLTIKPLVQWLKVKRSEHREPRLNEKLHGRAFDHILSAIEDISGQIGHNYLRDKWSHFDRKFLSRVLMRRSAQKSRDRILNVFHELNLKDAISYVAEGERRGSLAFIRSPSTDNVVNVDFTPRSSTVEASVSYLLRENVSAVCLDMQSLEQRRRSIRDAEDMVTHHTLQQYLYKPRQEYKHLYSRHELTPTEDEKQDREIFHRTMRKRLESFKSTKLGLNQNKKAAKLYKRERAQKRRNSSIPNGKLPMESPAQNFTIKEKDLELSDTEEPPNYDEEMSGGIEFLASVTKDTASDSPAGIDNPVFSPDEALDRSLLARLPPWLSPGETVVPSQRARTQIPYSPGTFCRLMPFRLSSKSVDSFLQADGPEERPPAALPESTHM
T1 sequence (Q99653 2-195 partner limits assumed): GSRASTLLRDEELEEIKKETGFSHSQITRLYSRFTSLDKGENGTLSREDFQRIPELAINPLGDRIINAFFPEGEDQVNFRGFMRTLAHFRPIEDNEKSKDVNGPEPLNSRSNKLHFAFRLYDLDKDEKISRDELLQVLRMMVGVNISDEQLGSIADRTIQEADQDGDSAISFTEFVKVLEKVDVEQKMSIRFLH
Procedure, shortened: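 Persistent inhibition: compound (0-30 μM, 60 min, RT, NaCl-HEPES pH 7.4) removed before assay. Human NHE3/NHERF2 PS120 cells were then BCECF-loaded during NH4Cl pulse (30 min, 37 °C), acidified in Na+-free buffer, and Na+ added 10 min after washout; antiport measured as initial fluorescence-ratio change per minute.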

[2] = biological target: T1, NHE3; assay: Cell-based assay of NHE-3 activity (pre-incubation inhibition), human; settings: human Preincubation; for IC50 / pIC50: 0-30 μM test compound
Procedure, shortened: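 Activity read as initial rate of BCECF fluorescence ratio change per minute (ex 439/505, em 538 nm) following NH4Cl prepulse acid loading. Compound (0–30 μM) present during 10 min Na+-free acidification at room temperature; cells were PS120 fibroblasts stably co-expressing human NHE3 and NHERF2.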

Row | % inhibition [1] | IC50 [1] [nM] | % inhibition [2] | pIC50 [1] | pIC50 [2] | Compound | IC50 [2] [nM]
1 | A (NHE3 < 40%) |  | C (>70%) | A (NHE3 pIC50 < 6) | A (NHE3 pIC50 < 6) | Cc1cc(S(=O)(=O)NCCOCCOCCNC(=O)NCCCCNC(=O)NCCOCCOCCNS(=O)(=O)c2ccc(O[C@H]3c4cc(Cl)cc(Cl)c4C[C@@H]3N3CCN(C(=O)N(C)C)CC3)c(C)c2)ccc1O[C@H]1c2cc(Cl)cc(Cl)c2C[C@@H]1N1CCN(C(=O)N(C)C)CC1 [Example 77, 4-[(1S,2S)-4,6-dichloro-1-[4-[(2-[2-[2-([[4-([[2-(2-[2-[(4-[[(1S,2S)-4,6-dichloro-2-[4-(dimethylcarbamoyl)piperazin-1-yl]-2,3-dihydro-1H-inden-1-yl]oxy]-3-methylbenzene)sulfonamido]ethoxy]ethoxy)ethyl]carbamoyl]amino)butyl]carbamoyl]amino)ethoxy]ethoxy]ethyl)sulfamoyl]-2-methylphenoxy]-2,3-dihydro-1H-inden-2-yl]-N,N-dimethylpiperazine-1-carboxamide; bis(trifluoroacetic acid)] | 
2 | C (>70%) | 100 to 1000 | C (>70%) |  |  | Cc1cc(S(=O)(=O)NCCOCCOCCNC(=O)NCCCCNC(=O)NCCOCCOCCNS(=O)(=O)c2cc(C)c(O[C@H]3c4cc(Cl)cc(Cl)c4C[C@@H]3N3CCC[C@@H](N)C3)c(C)c2)cc(C)c1O[C@H]1c2cc(Cl)cc(Cl)c2C[C@@H]1N1CCC[C@@H](N)C1 [Example 79, 3-[2-(2-[2-[(4-[[(1S,2S)-2-[(3R)-3-Aminopiperidin-1-yl]-4,6-dichloro-2,3-dihydro-1H-inden-1-yl]oxy]-3,5-dimethylbenzene)sulfonamido]ethoxy]ethoxy)ethyl]-1-[4-([[2-(2-[2-[(4-[[(1S,2S)-2-[(3R)-3-aminopiperidin-1-yl]-4,6-dichloro-2,3-dihydro-1H-inden-1-yl]oxy]3,5-dimethylbenzene)sulfonamido]ethoxy]ethoxy)ethyl]carbamoyl]amino)butyl]urea; hydrochloride] | 
3 | B (40-70%) | 100 to 1000 | B (40-70%) |  |  | Cc1cc(S(=O)(=O)NCCOCCOCCNC(=O)NCCCCNC(=O)NCCOCCOCCNS(=O)(=O)c2cc(C)c(O[C@H]3c4cc(Cl)cc(Cl)c4C[C@@H]3N(C)C)c(C)c2)cc(C)c1O[C@H]1c2cc(Cl)cc(Cl)c2C[C@@H]1N(C)C [Example 80] | 100 to 1000
4 | C (>70%) | 100 to 1000 | C (>70%) |  | C (NHE3 pIC50 > 7) | Cc1cc(S(=O)(=O)NCCOCCOCCNC(=O)NCCCCNC(=O)NCCOCCOCCNS(=O)(=O)c2cc(C)c(O[C@H]3c4cc(Cl)cc(Cl)c4C[C@@H]3N3CCC[C@@H](N)C3)cc2C)c(C)cc1O[C@H]1c2cc(Cl)cc(Cl)c2C[C@@H]1N1CCC[C@@H](N)C1 [Example 81, 3-[2-(2-[2-[(4-[[(1S,2S)-2-[(3R)-3-Aminopiperidin-1-yl]-4,6-dichloro-2,3-dihydro-1H-inden-1-yl]oxy]-2,5-dimethylbenzene)sulfonamido]ethoxy]ethoxy)ethyl]-1-[4-([[2-(2-[2-[(4-[[(1S,2S)-2-[(3R)-3-aminopiperidin-1-yl]-4,6-dichloro-2,3-dihydro-1H-inden-1-yl]oxy]-2,5-dimethylbenzene)sulfonamido]ethoxy]ethoxy)ethyl]carbamoyl]amino)butyl]urea] | 
5 | C (>70%) | 100 to 1000 | B (40-70%) |  | C (NHE3 pIC50 > 7) | Cc1cc(S(=O)(=O)NCCOCCOCCNC(=O)NCCCCNC(=O)NCCOCCOCCNS(=O)(=O)c2cc(C)c(O[C@H]3c4cc(Cl)cc(Cl)c4C[C@@H]3N(C)C)cc2C)c(C)cc1O[C@H]1c2cc(Cl)cc(Cl)c2C[C@@H]1N(C)C [Example 82, 3-[2-(2-[2-[(4-[[(1S,2S)-4,6-Dichloro-2-(dimethylamino)-2,3-dihydro-1H-inden-1-yl]oxy]-2,5-dimethylbenzene)sulfonamido]ethoxy]ethoxy)ethyl]-[4-([[2-(2-[2-[(4-[[(1S,2S)-4,6-dichloro-2-(dimethylamino)-2,3-dihydro-1H-inden-1-yl]oxy]-2,5-dimethylbenzene)sulfonamido]ethoxy]ethoxy)ethyl]carbamoyl]amino)butyl]urea] | 
6 | C (>70%) | 100 to 1000 | C (>70%) |  | C (NHE3 pIC50 > 7) | Cc1cc(S(=O)(=O)NCCOCCOCCNC(=O)NCCCCNC(=O)NCCOCCOCCNS(=O)(=O)c2cc(C)c(O[C@H]3c4cc(Cl)cc(Cl)c4C[C@@H]3N3CCC[C@@H](N)C3)c(F)c2)cc(F)c1O[C@H]1c2cc(Cl)cc(Cl)c2C[C@@H]1N1CCC[C@@H](N)C1 [Example 83, 1-[2-(2-[2-[(4-[[(1S,2S)-2-[(3R)-3-Aminopiperidin-1-yl]-4,6-dichloro-2,3-dihydro-1H-inden-1-yl]oxy]-3-fluoro-5-methylbenzene)sulfonamido]ethoxy]ethoxy)ethyl]-3-[4-([[2-(2-[2-[(4-[[(1S,2S)-2-[(3R)-3-aminopiperidin-1-yl]-4,6-dichloro-2,3-dihydro-1H-inden-1-yl]oxy]-3-fluoro-5-methylbenzene)sulfonamido]ethoxy]ethoxy)ethyl]carbamoyl]amino)butyl]urea; hydrochloride] | 
7 | C (>70%) |  | C (>70%) | C (NHE3 pIC50 > 7) | C (NHE3 pIC50 > 7) | Cc1cc(S(=O)(=O)NCCOCCOCCNC(=O)NCCCCNC(=O)NCCOCCOCCNS(=O)(=O)c2cc(C)c(O[C@H]3c4cc(Cl)cc(Cl)c4C[C@@H]3N(C)C)c(F)c2)cc(F)c1O[C@H]1c2cc(Cl)cc(Cl)c2C[C@@H]1N(C)C [Example 84, 1-[2-(2-[2-[(4-[[(1S,2S)-4,6-Dichloro-2-(dimethylamino)-2,3-dihydro-1H-inden-1-yl]oxy]-3-fluoro-5-methylbenzene)sulfonamido]ethoxy]ethoxy)ethyl]-3-[4-([[2-(2-[2-[(4-[[(1S,2S)-4,6-dichloro-2-(dimethylamino)-2,3-dihydro-1H-inden-1-yl]oxy]-3-fluoro-5-methylbenzene)sulfonamido]ethoxy]ethoxy)ethyl]carbamoyl]amino)butyl]urea] | 

Row | Compound | % inhibition [1] | IC50 [1] [nM] | % inhibition [2] | pIC50 [1] | pIC50 [2] | IC50 [2] [nM]
8 | CN(C)C(=O)N1CCN([C@H]2Cc3c(Cl)cc(Cl)cc3[C@@H]2Oc2ccc(S(=O)(=O)NCCOCCOCCNC(=O)NCCCCNC(=O)NCCOCCOCCNS(=O)(=O)c3ccc(O[C@H]4c5cc(Cl)cc(Cl)c5C[C@@H]4N4CCN(C(=O)N(C)C)CC4)cc3)cc2)CC1 [Example 76, 4-[(1S,2S)-4,6-dichloro-1-[4-[(2-[2-[2-([[4-([[2-(2-[2-[4-(4-[[(1S,2S)-4,6-dichloro-2-[4-(dimethylcarbamoyl)piperazin-1-yl]-2,3-dihydro-1H-inden-1-yl]oxy]benzene)sulfonamido]ethoxy]ethoxy)ethyl]carbamoyl]amino)butyl]carbamoyl]amino)ethoxy]ethoxy]ethyl)sulfamoyl]phenoxy]-2,3-dihydro-1H-inden-2-yl]-N,N-dimethylpiperazine-1-carboxamide] | A (NHE3 < 40%) | > 1000 | C (>70%) |  |  | < 100
